The source of these data is publication PMC9224258, “Zinc Coordination Compounds with Benzimidazole Derivatives: Synthesis, Structure, Antimicrobial Activity and Potential Anticancer Application” (International Journal of Molecular Sciences, 2022).

≈ marks a conversion by molar mass, not a printed value.

Experiment [1] has as its system glioblastoma (T98G) cell line. As to the kind of experiment: MTT cytotoxicity assay, T98G. The class given is cell-based. Conditions: MTT assay after 24 h incubation. On the procedure:
(§1) The cytotoxic effect of the compounds was evaluated using glioblastoma (T98G), neuroblastoma (SK-N-AS) and lung adenocarcinoma (A549) cell lines and human normal skin fibroblasts (CCD-1059Sk). T98G and SK-N-AS cells were cultured in DMEM, high glucose; A549 cells were cultured in DMEM/F12; and CCD-1059Sk cells were cultured in MEM. All media were supplemented with 10% FBS, 100 U/mL of penicillin and […] of streptomycin (PenStrep). Cells were incubated at 37 °C in a humidified atmosphere of 5% CO2. Stock solutions were prepared by dissolving the compounds in sterile dimethyl sulfoxide (DMSO) to obtain the concentration of 50 mg/mL. The cells were seeded into 96-well sterile plates (Nunc) at a density of 1 × 10^5 cells/mL. After 24 h of incubation, the medium was removed from each well, and then cells were incubated for the next 24 h with different concentrations of the tested compounds (1–100 µg/mL) in respective medium containing 2% FBS. Cytotoxicity of the compounds was evaluated using the MTT assay, which is based on the conversion of 3-(4,5-dimethylthiazol-2-yl)-2,5-diphenyltetrazolium bromide (MTT) into dark-blue formazan crystals. Briefly, after 24 h incubation of cells with varying concentrations of the tested compounds, all culture media were removed from the plates. Cells were washed with PBS, and then 100 µL of medium containing 10% MTT solution (5 mg/mL) was added to each well. After 3 h incubation, 100 µL (per well) of 10% SDS buffer solution was added to solubilize formazan crystals. After overnight incubation, the absorbance was measured at 570 nm using a microplate reader (Epoch, BioTek Instruments). Experiments were repeated twice, and the measurements in each experiment were run in triplicate. The viability of the investigated cells was expressed as a percentage of the viability of the untreated cells, and the results were transformed into IC50 values (expressed as mean ± SD). […] The complexes were screened for antibacterial and antifungal activities by micro-dilution broth method using Mueller–Hinton broth for growth of bacteria or Mueller–Hinton broth with 2% glucose for growth of fungi. Minimal inhibitory concentrations (MICs) of the tested derivatives were evaluated for the panel of the reference microorganisms from the American Type Culture Collection (ATCC), including Gram-negative bacteria (Escherichia coli ATCC 25922, Salmonella Typhimurium ATCC14028, Klebsiella pneumoniae ATCC 13883, Pseudomonas aeruginosa ATCC 9027, Proteus mirabilis ATCC 12453), Gram-positive bacteria (Staphylococcus aureus ATCC 25923, Staphylococcus epidermidis ATCC 12228, Micrococcus luteus ATCC 10240, Enterococcus faecalis ATCC 29212, Bacillus subtilis ATCC 6633, Bacillus cereus ATCC 10876) and fungi (Candida albicans ATCC 10231, Candida parapsilosis ATCC 22019, C. glabrata ATCC 90030).

In experiment [2] the test system is neuroblastoma (SK-N-AS) cell line. Put plainly: MTT cytotoxicity assay, SK-N-AS. Conditions: MTT assay after 24 h incubation. It is filed as cell-based, human. On the procedure:
as §1

The test system of experiment [3] is lung adenocarcinoma (A549) cell line. As to the kind of experiment: MTT cytotoxicity assay, A549. The class given is cell-based, human. Conditions: MTT assay after 24 h incubation. How it is done:
as §1

Experiment [4] relates to human normal skin fibroblasts (CCD-1059Sk). Put plainly: MTT cytotoxicity assay, normal fibroblasts. It is filed as cell-based. Conditions: MTT assay after 24 h incubation, normal cells. How it is done:
as §1

The subject of experiment [5] is lung adenocarcinoma (A549) cell line. Set-up: method as in earlier work. Conditions: incubated for 24 h with A549 cells; ref 77 (Zhang F. et al.); cited from earlier work.
The subject of the next experiment is S. aureus ATCC 25923. As to the kind of experiment: micro-dilution broth MIC. It is filed as cell-based, Staphylococcus aureus. Conditions: S. aureus ATCC 25923; Gram-positive. On the procedure: as §1
The subject of experiment [6] is S. epidermidis ATCC 12228. As to the kind of experiment: micro-dilution broth MIC. Conditions: S. epidermidis ATCC 12228; Gram-positive. It is filed as cell-based, Staphylococcus epidermidis. On the procedure:
as §1

The next experiment deals with M. luteus ATCC 10240. As to the kind of experiment: micro-dilution broth MIC. The class given is cell-based, Micrococcus luteus. Conditions: M. luteus ATCC 10240; Gram-positive. How it is done: as §1
The subject of a further experiment is E. faecalis ATCC 29212. Put plainly: micro-dilution broth MIC. The class given is cell-based, Enterococcus faecalis. Conditions: E. faecalis ATCC 29212; Gram-positive. How it is done:
as §1

The next experiment deals with B. subtilis ATCC 6633. As to the kind of experiment: micro-dilution broth MIC. The class given is cell-based, Bacillus subtilis. Conditions: B. subtilis ATCC 6633; Gram-positive. On the procedure:
as §1

The next experiment has as its system B. cereus ATCC 10876. As to the kind of experiment: micro-dilution broth MIC. The class given is cell-based, Bacillus cereus. Conditions: B. cereus ATCC 10876; Gram-positive. On the procedure: as §1
Experiment [7] concerns S. typhimurium ATCC 14028. As to the kind of experiment: micro-dilution broth MIC. It is filed as cell-based, Salmonella Typhimurium. Conditions: Gram-negative. How it is done:
as §1

A further experiment concerns E. coli ATCC 25922. As to the kind of experiment: micro-dilution broth MIC. It is filed as cell-based, Escherichia coli. Conditions: Gram-negative. On the procedure:
as §1

For a further experiment, the system named is P. mirabilis ATCC 12453. Put plainly: micro-dilution broth MIC. The class given is cell-based, Proteus mirabilis. Conditions: Gram-negative. On the procedure:
as §1

For the next experiment, the system named is K. pneumoniae ATCC 13883. Put plainly: micro-dilution broth MIC. The class given is cell-based, Klebsiella pneumoniae. Conditions: Gram-negative. On the procedure:
as §1

The subject of another experiment is P. aeruginosa ATCC 9027. As to the kind of experiment: micro-dilution broth MIC. It is filed as cell-based, Pseudomonas aeruginosa. Conditions: Gram-negative. How it is done: as §1
In a further experiment the test system is C. glabrata ATCC 2091. As to the kind of experiment: micro-dilution broth MIC. The class given is cell-based. Conditions: yeast.
Another experiment relates to C. albicans ATCC 102231. As to the kind of experiment: micro-dilution broth MIC. It is filed as cell-based, Candida albicans. Conditions: yeast. How it is done: as §1
Experiment [8] has as its system C. parapsilosis ATCC 22019. As to the kind of experiment: micro-dilution broth MIC. The class given is cell-based, Candida parapsilosis. Conditions: yeast. On the procedure:
as §1

Regarding `COc1cc([C@@H]2c3cc4c(cc3[C@@H](O[C@@H]3O[C@@H]5CO[C@@H](C)O[C@H]5[C@H](O)[C@H]3O)[C@H]3COC(=O)[C@H]23)OCO4)cc(OC)c1O` [Etoposide, reference compound], the IC50 in [1] (Homo sapiens, T98G, read-out: IC50 ± SD, T98G) is above 100 µg/mL; in experiment [2] (Homo sapiens, SK-N-AS, read-out: IC50 ± SD, SK-N-AS), 67.8 ± 2.03 µg/mL (≈ 115 µM); in experiment [3] (Homo sapiens, A549, read-out: IC50 ± SD, A549), above 100 µg/mL; in [4] (Homo sapiens, CCD-1059Sk, read-out: IC50 ± SD, CCD-1059-Sk) it was above 100 µg/mL. For the same compound, the “median inhibitory concentration (IC50), A549” value in experiment [5] is 115 µg/mL.

Turning to `[Cl][Zn][Cl].[Cl][Zn][Cl].c1cnc2[nH]c(-c3ccncc3)nc2c1.c1cnc2[nH]c(-c3ccncc3)nc2c1` [Complex C2], the “IC50 ± SD, T98G” value in [1] is listed as 24.29 ± 0.11 µg/mL. Also, in experiment [2], the “IC50 ± SD, SK-N-AS” value amounted to 33.72 ± 0.39 µg/mL. In experiment [3], the “IC50 ± SD, A549” value came out at 34.44 ± 0.75 µg/mL. In addition, the “IC50 ± SD, CCD-1059-Sk” value in [4] came out at 27.27 ± 1.05 µg/mL. Also, the MIC with S. aureus ATCC 25923 turned out to be 500 µg/mL; in [6], 500 µg/mL; against M. luteus ATCC 10240, 250 µg/mL; against E. faecalis ATCC 29212 it was 1000 µg/mL; with B. subtilis ATCC 6633, 500 µg/mL; against B. cereus ATCC 10876 it was 500 µg/mL. Moreover, the minimal inhibitory concentration (MIC) in [7] is 1000 µg/mL; in the experiment with E. coli ATCC 25922, 1000 µg/mL; in the experiment with P. mirabilis ATCC 12453, 1000 µg/mL; in the experiment on K. pneumoniae ATCC 13883 it was 1000 µg/mL; in the experiment with P. aeruginosa ATCC 9027, above 1000 µg/mL; with C. glabrata ATCC 2091 it was above 1000 µg/mL. In addition, the minimum inhibitory concentration (MIC) in the experiment on C. albicans ATCC 102231 was 1000 µg/mL; in [8], above 1000 µg/mL.
